Results as given in US20060233935A1, “Rhamnolipids in bakery products” (priority 2002, published 2006).

Experiment: Non-dairy cream filling evaluation (Example 16)
Details: 0.01% (w/w) in liquid preparation
Description: Polysorbate 60 has been replaced by rhamnolipids in non-dairy cream filling for pastries.
The following preparation process was used: The starch is mixed with the water, sugar and glucose syrup are added together with the emulsifier and titanium dioxide. After mixing until homogenous all the other ingredients are added and mixed again. The total mixture is heated until jellification of the starch.
Bake stability (180° C., 30 minutes), color, taste, speed of incorporation of fat into the mixture and possible separation of fat during conservation are evaluated (Table 16).

Q: With Polysorbate 60 as the substance, how does the Stability during conservation read?
A: Stable during
